Experimental data from publication PMC8956739, “A synthetic lipopeptide targeting top-priority multidrug-resistant Gram-negative pathogens” (Nature Communications, 2022).
≈ marks a conversion by molar mass, not a printed value. Where “and” joins values, the source holds several entries; their conditions need not be identical. Identical values can stand only once. Like-named read-outs stand apart in the source and are kept apart here. Residues, ends and D or L forms follow the SMILES beside them.

Key:
[1] = tested on: K. pneumoniae FADDI-KP065; type: cell-based, Klebsiella pneumoniae
Procedure: (§1) MICs were determined in cation-adjusted Mueller–Hinton broth (CaMHB) by the broth micro-dilution method against ATCC strains and clinical isolates. MICs in the presence of Survanta® were determined as described above against P. aeruginosa ATCC 27853. In the 100 μL of fresh CaMHB containing polymyxins, 10% Survanta® (v/v, 2.5 mg/mL phospholipids) was added. MICs in the presence and absence of Survanta® were compared to determine the effect of binding to lung surfactant on the antibacterial activity of polymyxins.

[2] = tested on: K. pneumoniae FADDI-KP032; type: cell-based, Klebsiella pneumoniae
Procedure: as §1

[3] = tested on: P. aeruginosa FADDI-PA038; type: cell-based, Pseudomonas aeruginosa
Procedure: as §1

[4] = tested on: P. aeruginosa FADDI-PA025; type: cell-based, Pseudomonas aeruginosa
Procedure: as §1

[5] = tested on: P. aeruginosa ATCC 27853; type: cell-based, Pseudomonas aeruginosa
Procedure: as §1

[6] = tested on: A. baumannii FADDI-AB030; type: cell-based, Acinetobacter baumannii
Procedure: as §1

[7] = tested on: A. baumannii FADDI-AB034; type: cell-based, Acinetobacter baumannii
Procedure: as §1

[8] = tested on: A. baumannii ATCC 19606; type: cell-based, Acinetobacter baumannii
Procedure: as §1

[9] = tested on: P. aeruginosa ATCC 27853; experiment: Neutropenic mouse bloodstream infection model; type: in vivo; conditions: single IV dose 4 mg/kg; for Log10 CFU/mL blood at 4 h, Mean / Δlog10 CFU/mL blood (mean) / Log10 CFU/mL blood at 4 h, single mouse: 4 h; for Δlog10 CFU/mL blood (mean): treated minus control, mean of replicates; for Δlog10 CFU/mL blood (mean) / Log10 CFU/mL blood at 4 h, single mouse / Delta Log10 CFU/mL blood at 4 h, single mouse: 4 mg/kg; for Delta Log10 CFU/mL blood at 4 h, single mouse: treated mouse minus mean of vehicle mice
Procedure: The experimental methodology for the neutropenic mouse bloodstream infection model was described previously. Briefly, 7-week-old female Swiss mice (22–28 g) were rendered neutropenic by intraperitoneal administration of cyclophosphamide, 4 days (150 mg/kg) and 1 day (100 mg/kg) prior to inoculation. Bloodstream infection was established by intravenous administration of a 50 µL bolus of early log-phase bacterial suspension (4 × 10^8 CFU/mL). Lipopeptide solutions were prepared at 1 mg/mL (free base) in sterile saline. At 2 h after inoculation, mice (n = 3) were injected intravenously with lipopeptide solution at 4 mg/kg (free base) or saline control. At 0 and 4 h after administration, blood was collected, diluted serially in sterile saline, and plated on nutrient agar plates. Agar plates were incubated at 37 °C overnight for bacterial colony counting and the bacterial load in the blood (log10 CFU/mL) in each mouse was calculated. In vivo efficacy was calculated as the difference of the log10 CFU/mL blood values between the treated mice and the saline-treated mice at 4 h post dosing (Δlog10 CFU/mL blood = log10 [treated] CFU/mL blood − log10[control] CFU/mL blood).

[10] = tested on: Swiss mice, kidney; experiment: Nephrotoxicity in mice (kidney histopathology); type: in vivo, mouse; conditions: for Kidney histopathology (SQS Score): 72 mg/kg/d subcutaneously in six divided doses every 2 h, n = 3; for Kidney histopathology, mice with the SQS score: mouse, in vivo
Procedure: The experimental methodology has been previously reported by our group. Briefly, individual lipopeptide solutions were prepared in sterile saline (6 mg/mL). Swiss mice (female, 7-week-old, 22–28 g) were subcutaneously administered at 12 mg/kg in, 6 doses every 2 h to reach a total dose of 72 mg/kg (n = 3). For high-dose nephrotoxicity experiments, mice were intraperitoneally administered at 20 or 25 mg/kg, in 6 doses every 2 h to reach a total dose of 120 mg/kg (n = 6) or 150 mg/kg (n = 3). At 20 h after the last dose, the right kidney from each mouse was collected and placed in 10% buffered (pH 7.4) formalin (Sigma-Aldrich, Castle Hill, NSW, Australia). The kidneys were subjected to histological examination at the Australian Phenomics Network-Histopathology and Organ Pathology (University of Melbourne, Parkville, VIC, Australia), who was blind to the treatment groups.

Row | Compound | MIC K. pneumoniae FADDI-KP065 ([1]; FADDI-KP065) | MIC K. pneumoniae FADDI-KP032 ([2]; FADDI-KP032) | MIC P. aeruginosa FADDI-PA038 ([3]; FADDI-PA038) | MIC P. aeruginosa FADDI-PA025 ([4]; FADDI-PA025) | MIC P. aeruginosa ATCC 27853 ([5]; ATCC 27853) | MIC A. baumannii FADDI-AB030 ([6]; FADDI-AB030) | MIC A. baumannii FADDI-AB034 ([7]; FADDI-AB034) | MIC A. baumannii ATCC 19606 ([8]; ATCC 19606) | Log10 CFU/mL blood at 4 h, Mean [9] | Δlog10 CFU/mL blood (mean) [9] | Log10 CFU/mL blood at 4 h, single mouse [9] | Delta Log10 CFU/mL blood at 4 h, single mouse [9] | Kidney histopathology (SQS Score) [10] | Kidney histopathology, mice with the SQS score [10] | also measured
1 | CCCCCCCC(=O)N[C@@H](CCN)C(=O)N[C@H](C(=O)N[C@H](CCN)C(=O)N[C@H]1CCNC(=O)[C@H]([C@@H](C)O)NC(=O)[C@H](CCN)NC(=O)[C@H](CCN)NC(=O)[C@H]([C@@H](C)O)NC(=O)[C@@H](CC(C)C)NC(=O)[C@H](CCN)NC1=O)[C@@H](C)O [Lipopeptide F085] (HELM PEPTIDE1{[CCCCCCCC(=O)[*:2]].[Dab].T.[NCC[C@@H](N[*:1])C(=O)[*:2]].[Dab].[Dab].[dL].T.[Dab].[Dab].T}$PEPTIDE1,PEPTIDE1,5:R3-11:R2$$$V2.0) | <0.125 µg/mL | 0.25 µg/mL (≈ 0.219 µM) | 0.5 µg/mL (≈ 0.437 µM) | 8 µg/mL (≈ 7 µM) | 0.5 µg/mL (≈ 0.437 µM) | 0.25 µg/mL (≈ 0.219 µM) | 2 µg/mL (≈ 1.75 µM) | 1 µg/mL (≈ 0.875 µM) | 2.97 Log10 CFU/mL blood | −2.16 log10 CFU/mL blood | 3.39 Log10 CFU/mL blood and 3.30 Log10 CFU/mL blood and 2.20 Log10 CFU/mL blood | -1.73 Log10 CFU/mL blood and -1.83 Log10 CFU/mL blood and -2.92 Log10 CFU/mL blood | +2 (SQS + 2 = mild to moderate damage (overall score, 15 to <30)) | 2/2 | 
2 | CCCCCCCC(=O)N[C@@H](CCN)C(=O)N[C@H](C(=O)N[C@@H](CCN)C(=O)N[C@H]1CCNC(=O)[C@H]([C@@H](C)O)NC(=O)[C@H](CCN)NC(=O)[C@H](CCN)NC(=O)[C@H]([C@@H](C)O)NC(=O)[C@@H](CC(C)C)NC(=O)[C@H](CCN)NC1=O)[C@@H](C)O [Lipopeptide F100] (HELM PEPTIDE1{[CCCCCCCC(=O)[*:2]].[Dab].T.[Dab].[Dab].[Dab].[dL].T.[Dab].[Dab].T}$PEPTIDE1,PEPTIDE1,5:R3-11:R2$$$V2.0) | <0.125 µg/mL | 0.25 µg/mL (≈ 0.219 µM) | 0.5 µg/mL (≈ 0.437 µM) | >32 µg/mL | 0.5 µg/mL (≈ 0.437 µM) | 1 µg/mL (≈ 0.875 µM) | 2 µg/mL (≈ 1.75 µM) | 4 µg/mL (≈ 3.5 µM) | 4.44 Log10 CFU/mL blood | −3.01 log10 CFU/mL blood | 4.50 Log10 CFU/mL blood and 4.28 Log10 CFU/mL blood and 4.53 Log10 CFU/mL blood | -2.95 Log10 CFU/mL blood and -3.17 Log10 CFU/mL blood and -2.91 Log10 CFU/mL blood | 0 (SQS 0 = no significant change (overall score, <1)) | 3/3 | 
3 | CC[C@@H]1NC(=O)[C@@H](CC(C)C)NC(=O)[C@H](CCN)NC(=O)[C@@H](NC(=O)[C@H](CN)NC(=O)[C@@H](NC(=O)[C@H](CCN)NC(=O)c2ccccc2Cl)[C@@H](C)O)CCNC(=O)[C@H]([C@@H](C)O)NC(=O)[C@H](CCN)NC(=O)[C@H](CCN)NC1=O [Lipopeptide F350] (HELM PEPTIDE1{[O=C(c1ccccc1Cl)[*:2]].[Dab].T.[NC[C@H](N[*:1])C(=O)[*:2]].[Dab].[Dab].[dL].[Abu].[Dab].[Dab].T}$PEPTIDE1,PEPTIDE1,5:R3-11:R2$$$V2.0; bridges inferred) |  |  |  |  |  |  |  |  |  |  |  |  |  |  | MIC K. pneumoniae FADDI-KP065 ([1]; carbapenem-resistant isolate): 0.5 µg/mL (≈ 0.444 µM); MIC K. pneumoniae FADDI-KP032 ([2]; carbapenem-resistant isolate): 1 µg/mL (≈ 0.888 µM); MIC P. aeruginosa FADDI-PA038 ([3]; carbapenem-resistant isolate): 2 µg/mL (≈ 1.78 µM); MIC P. aeruginosa FADDI-PA025 ([4]; MDR clinical isolate): 4 µg/mL (≈ 3.55 µM); MIC P. aeruginosa ATCC 27853 [5]: 0.5 µg/mL (≈ 0.444 µM); MIC, 10% Survanta ([5]; P. aeruginosa ATCC 27853, 10% Survanta): 0.5 µg/mL (≈ 0.444 µM); MIC, No Survanta ([5]; P. aeruginosa ATCC 27853, no surfactant): 0.5 µg/mL (≈ 0.444 µM); MIC A. baumannii FADDI-AB030 ([6]; carbapenem-resistant isolate): 4 µg/mL (≈ 3.55 µM); MIC A. baumannii FADDI-AB034 ([7]; carbapenem-resistant isolate): 4 µg/mL (≈ 3.55 µM); MIC A. baumannii ATCC 19606 [8]: 8 µg/mL (≈ 7.11 µM)

More lines, main results first:

Row | MIC K. pneumoniae FADDI-KP065 ([1]; FADDI-KP065) | MIC K. pneumoniae FADDI-KP032 ([2]; FADDI-KP032) | MIC P. aeruginosa FADDI-PA038 ([3]; FADDI-PA038) | MIC P. aeruginosa FADDI-PA025 ([4]; FADDI-PA025) | MIC P. aeruginosa ATCC 27853 ([5]; ATCC 27853) | MIC A. baumannii FADDI-AB030 ([6]; FADDI-AB030) | MIC A. baumannii FADDI-AB034 ([7]; FADDI-AB034) | MIC A. baumannii ATCC 19606 ([8]; ATCC 19606) | Compound | Log10 CFU/mL blood at 4 h, Mean [9] | Δlog10 CFU/mL blood (mean) [9] | Log10 CFU/mL blood at 4 h, single mouse [9] | Delta Log10 CFU/mL blood at 4 h, single mouse [9] | Kidney histopathology (SQS Score) [10] | Kidney histopathology, mice with the SQS score [10] | also measured
4 | 0.25 µg/mL (≈ 0.221 µM) | <0.125 µg/mL | 4 µg/mL (≈ 3.54 µM) | >32 µg/mL | 4 µg/mL (≈ 3.54 µM) | <0.125 µg/mL | 0.25 µg/mL (≈ 0.221 µM) | 1 µg/mL (≈ 0.885 µM) | CCCCCCCC(=O)N[C@@H](CCN)C(=O)N[C@H](C(=O)N[C@H](CO)C(=O)N[C@H]1CCNC(=O)[C@H]([C@@H](C)O)NC(=O)[C@H](CCN)NC(=O)[C@H](CCN)NC(=O)[C@H]([C@@H](C)O)NC(=O)[C@@H](CC(C)C)NC(=O)[C@H](CCN)NC1=O)[C@@H](C)O [Lipopeptide F183] (HELM PEPTIDE1{[CCCCCCCC(=O)[*:2]].[Dab].T.[dS].[Dab].[Dab].[dL].T.[Dab].[Dab].T}$PEPTIDE1,PEPTIDE1,5:R3-11:R2$$$V2.0) |  |  |  |  | 0 (SQS 0 = no significant change (overall score, <1)) | 3/3 | MIC, No Survanta ([5]; ATCC 27853): 4 µg/mL (≈ 3.54 µM)
5 | 2 µg/mL (≈ 1.77 µM) | 1 µg/mL (≈ 0.885 µM) | >32 µg/mL | >32 µg/mL | >32 µg/mL | 32 µg/mL (≈ 28.3 µM) | >32 µg/mL | >32 µg/mL | CCCCCCCC(=O)N[C@@H](CCN)C(=O)N[C@H](C(=O)N[C@@H](CCN)C(=O)N[C@H]1CCNC(=O)[C@H]([C@@H](C)O)NC(=O)[C@H](CCN)NC(=O)[C@H](CCN)NC(=O)[C@H]([C@@H](C)O)NC(=O)[C@@H](C(C)C)NC(=O)[C@H](CCN)NC1=O)[C@@H](C)O [Lipopeptide F229] (HELM PEPTIDE1{[CCCCCCCC(=O)[*:2]].[Dab].T.[Dab].[Dab].[Dab].[dV].T.[Dab].[Dab].T}$PEPTIDE1,PEPTIDE1,5:R3-11:R2$$$V2.0) |  |  |  |  | 0 (SQS 0 = no significant change (overall score, <1)) | 3/3 | 
6 | 32 µg/mL (≈ 28.3 µM) | 16 µg/mL (≈ 14.1 µM) | >32 µg/mL | >32 µg/mL | >32 µg/mL | >32 µg/mL | >32 µg/mL | >32 µg/mL | CCCCCCCC(=O)N[C@@H](CCN)C(=O)N[C@H](C(=O)N[C@@H](CCN)C(=O)N[C@H]1CCNC(=O)[C@H]([C@@H](C)O)NC(=O)[C@H](CCN)NC(=O)[C@H](CCN)NC(=O)[C@H]([C@@H](C)O)NC(=O)[C@@H]([C@H](C)O)NC(=O)[C@H](CCN)NC1=O)[C@@H](C)O [Lipopeptide F230] (HELM PEPTIDE1{[CCCCCCCC(=O)[*:2]].[Dab].T.[Dab].[Dab].[Dab].[dT].T.[Dab].[Dab].T}$PEPTIDE1,PEPTIDE1,5:R3-11:R2$$$V2.0) |  |  |  |  | 0 (SQS 0 = no significant change (overall score, <1)) | 3/3 | 
